Source: patent US20260262643A1, “HERBICIDAL BENZOXAZINES” (FMC CORPORATION, priority 2022, published 2026)

Columns and labels:
corn [1] = assay: Test C postemergence; assay type: in vivo, Zea mays; details: 10 days
Method in brief: (§1)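 Pre: seeds in loam/sand, directed soil spray. Post: 1–2 leaf plants, 2–10 cm. Cmpd in non-phytotoxic solvent + surfactant. Greenhouse 10 d; visual rating vs untreated, 0 = none, 100 = complete control.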

ryegrass, Italian [2] = assay: Test C postemergence; assay type: in vivo, Lolium multiflorum; details: 10 days
Method in brief: as §1

kochia [3] = assay: Test C preemergence; assay type: in vivo, Bassia scoparia; details: 0 to 100 scale (0 no effect, 100 complete control); for Plant response rating, Kochia: Preemergence, 500 g ai/ha, visual rating after 10 days; for Kochia plant response rating: Test C, preemergence, 125 g ai/ha
Method in brief: as §1

ryegrass, Italian [4] = assay: Test C preemergence; assay type: in vivo, Lolium multiflorum; details: 0 to 100 scale (0 no effect, 100 complete control); for Plant response rating, Ryegrass, Italian: Preemergence, 500 g ai/ha, visual rating after 10 days; for Ryegrass, Italian plant response rating: Test C, preemergence, 125 g ai/ha
Method in brief: as §1

galium = assay: Test C postemergence; assay type: in vivo, Galium aparine; details: 10 days
Method in brief: as §1

pigweed, palmer [5] = assay: Test C preemergence; assay type: in vivo, Amaranthus palmeri; details: 0 to 100 scale (0 no effect, 100 complete control); for Plant response rating, Pigweed, Palmer: Preemergence, 500 g ai/ha, visual rating after 10 days; for Pigweed, Palmer plant response rating: Test C, preemergence, 125 g ai/ha
Method in brief: as §1

rice = assay: Test D flooded paddy test; assay type: in vivo, Oryza sativa; details: 250 g ai/ha, applied to paddy water, visual rating after 13 to 14 days, scale 0 to 100 (0 no effect, 100 complete control)
Protocol: (§2) Plant species in the flooded paddy test selected from barnyardgrass (Echinochloa crus-galli), ducksalad (Heteranthera limosa), rice (Oryza sativa), and sedge, umbrella (small-flower umbrella sedge, Cyperus difformis) were grown to the 2-leaf stage for testing. At time of treatment, test pots were flooded to 3 cm above the soil surface, treated by application of test compounds directly to the paddy water, and then maintained at that water depth for the duration of the test. Treated plants and controls were maintained in a greenhouse for 13 to 14 days, after which time all species were compared to controls and visually evaluated. Plant response ratings, summarized in Table D, are based on a scale of 0 to 100 where 0 is no effect and 100 is complete control. A dash (-) response means no test result.

wheat [6] = assay: Test C preemergence; assay type: in vivo, Triticum aestivum; details: 0 to 100 scale (0 no effect, 100 complete control); for Plant response rating, Wheat: Preemergence, 500 g ai/ha, visual rating after 10 days; for Wheat plant response rating: Test C, preemergence, 125 g ai/ha
Method in brief: as §1

wheat [7] = assay: Test C postemergence; assay type: in vivo, Triticum aestivum; details: 10 days
Method in brief: as §1

oat, wild [8] = assay: Test C postemergence; assay type: in vivo, Avena fatua; details: 10 days
Method in brief: as §1

sedge, umbrella = assay: Test D flooded paddy test; assay type: in vivo, Cyperus difformis; details: 250 g ai/ha, applied to paddy water, visual rating after 13 to 14 days, scale 0 to 100 (0 no effect, 100 complete control)
Protocol: as §2

soybean [9] = assay: Test C preemergence; assay type: in vivo, Glycine max; details: 0 to 100 scale (0 no effect, 100 complete control); for Plant response rating, Soybean: Preemergence, 500 g ai/ha, visual rating after 10 days; for Soybean plant response rating: Test C, preemergence, 125 g ai/ha
Method in brief: as §1

horseweed = assay: Test C postemergence; assay type: in vivo, Erigeron canadensis; details: 10 days
Method in brief: as §1

ducksalad = assay: Test D flooded paddy test; assay type: in vivo, Heteranthera limosa; details: 250 g ai/ha, applied to paddy water, visual rating after 13 to 14 days, scale 0 to 100 (0 no effect, 100 complete control)
Protocol: as §2

corn [10] = assay: Test C preemergence; assay type: in vivo, Zea mays; details: 0 to 100 scale (0 no effect, 100 complete control); for Plant response rating, Corn: Preemergence, 500 g ai/ha, visual rating after 10 days; for Corn plant response rating: Test C, preemergence, 125 g ai/ha
Method in brief: as §1

blackgrass [11] = assay: Test C preemergence; assay type: in vivo, Alopecurus myosuroides; details: 0 to 100 scale (0 no effect, 100 complete control); for Plant response rating, Blackgrass: Preemergence, 500 g ai/ha, visual rating after 10 days; for Blackgrass plant response rating: Test C, preemergence, 125 g ai/ha
Method in brief: as §1

ragweed [12] = assay: Test C preemergence; assay type: in vivo, Ambrosia artemisiifolia; details: 0 to 100 scale (0 no effect, 100 complete control); for Plant response rating, Ragweed: Preemergence, 500 g ai/ha, visual rating after 10 days; for Ragweed plant response rating: Test C, preemergence, 125 g ai/ha
Method in brief: as §1

ragweed [13] = assay: Test C postemergence; assay type: in vivo, Ambrosia artemisiifolia; details: 10 days
Method in brief: as §1

barnyardgrass [14] = assay: Test D flooded paddy test; assay type: in vivo, Echinochloa crus-galli; details: 250 g ai/ha, applied to paddy water, visual rating after 13 to 14 days, scale 0 to 100 (0 no effect, 100 complete control)
Protocol: as §2

oat, wild [15] = assay: Test C preemergence; assay type: in vivo, Avena fatua; details: 0 to 100 scale (0 no effect, 100 complete control); for Plant response rating, Oat, Wild: Preemergence, 500 g ai/ha, visual rating after 10 days; for Oat, Wild plant response rating: Test C, preemergence, 125 g ai/ha
Method in brief: as §1

kochia [16] = assay: Test C postemergence; assay type: in vivo, Bassia scoparia; details: 10 days
Method in brief: as §1

barnyardgrass [17] = assay: Test C preemergence; assay type: in vivo, Echinochloa crusgalli; details: 0 to 100 scale (0 no effect, 100 complete control); for Plant response rating, Barnyardgrass: Preemergence, 500 g ai/ha, visual rating after 10 days; for Barnyardgrass plant response rating: Test C, preemergence, 125 g ai/ha
Method in brief: as §1

pigweed, palmer [18] = assay: Test C postemergence; assay type: in vivo, Amaranthus palmeri; details: 10 days
Method in brief: as §1

green foxtail = assay: Test C preemergence; assay type: in vivo, Setaria viridis; details: 0 to 100 scale (0 no effect, 100 complete control); for Plant response rating, Foxtail, Green: Preemergence, 500 g ai/ha, visual rating after 10 days; for Foxtail, Green plant response rating: Test C, preemergence, 125 g ai/ha
Method in brief: as §1

barnyardgrass [19] = assay: Test C postemergence; assay type: in vivo, Echinochloa crusgalli; details: 10 days
Method in brief: as §1

soybean [20] = assay: Test C postemergence; assay type: in vivo, Glycine max; details: 10 days
Method in brief: as §1

blackgrass [21] = assay: Test C postemergence; assay type: in vivo, Alopecurus myosuroides; details: 10 days
Method in brief: as §1

[22] = 125 g ai/ha, postemergence, 0 to 100 scale, 0 no effect, 100 complete control
[23] = Postemergence, 500 g ai/ha, visual 0 to 100 scale (0 no effect, 100 complete control)

With CCc1ncn(-c2ccc(OC)c(C(=O)N3C[C@H](COC)Oc4c(Cl)cccc43)c2)n1 [Compound 231] the “Plant response rating, Corn” value (corn [1]; [22]) was 70, the “Plant response rating, Corn” value (corn [1]; [23]) was 90 and the “Plant response rating, Ryegrass, Italian” value (ryegrass, Italian [2]; [22]) was 90. The “Plant response rating, Ryegrass, Italian” value (ryegrass, Italian [2]; [23]) was 100, the “Plant response rating, Kochia” value (kochia [3]) was 100 and the “Kochia plant response rating” value (kochia [3]) was 90. The “Plant response rating, Ryegrass, Italian” value (ryegrass, Italian [4]) was 90, the “Ryegrass, Italian plant response rating” value (ryegrass, Italian [4]) was 70 and the “Plant response rating, Galium” value (galium; [22]) was 100. For the same compound, the “Plant response rating, Galium” value (galium; [23]) was 100, the “Plant response rating, Pigweed, Palmer” value (pigweed, palmer [5]) was 100 and the “Pigweed, Palmer plant response rating” value (pigweed, palmer [5]) was 100. For the same compound, the “Plant response rating, Rice (Flood)” value (rice) was 0, the “Plant response rating, Wheat” value (wheat [6]) was 80 and the “Wheat plant response rating” value (wheat [6]) was 40. For the same compound, the “Plant response rating, Wheat” value (wheat [7]; [22]) was 50, the “Plant response rating, Wheat” value (wheat [7]; [23]) was 90 and the “Plant response rating, Oat, Wild” value (oat, wild [8]; [22]) was 50. The “Plant response rating, Oat, Wild” value (oat, wild [8]; [23]) was 90, the “Plant response rating, Sedge, Umbrella (Flood)” value (sedge, umbrella) was 100 and the “Plant response rating, Soybean” value (soybean [9]) was 70. For the same compound, the “Soybean plant response rating” value (soybean [9]) was 60, the “Plant response rating, Horseweed” value (horseweed; [22]) was 60 and the “Plant response rating, Horseweed” value (horseweed; [23]) was 90. For the same compound, the “Plant response rating, Ducksalad (Flood)” value (ducksalad) was 85, the “Plant response rating, Corn” value (corn [10]) was 30 and the “Corn plant response rating” value (corn [10]) was 10. The “Plant response rating, Blackgrass” value (blackgrass [11]) was 90, the “Blackgrass plant response rating” value (blackgrass [11]) was 60 and the “Plant response rating, Ragweed” value (ragweed [12]) was 90. The “Ragweed plant response rating” value (ragweed [12]) was 50, the “Plant response rating, Ragweed” value (ragweed [13]; [22]) was 70 and the “Plant response rating, Ragweed” value (ragweed [13]; [23]) was 70. The “Plant response rating, Barnyardgrass (Flood)” value (barnyardgrass [14]) was 15, the “Plant response rating, Oat, Wild” value (oat, wild [15]) was 80 and the “Oat, Wild plant response rating” value (oat, wild [15]) was 40. The “Plant response rating, Kochia” value (kochia [16]; [22]) was 80, the “Plant response rating, Kochia” value (kochia [16]; [23]) was 90 and the “Plant response rating, Barnyardgrass” value (barnyardgrass [17]) was 100. For the same compound, the “Barnyardgrass plant response rating” value (barnyardgrass [17]) was 60, the “Plant response rating, Pigweed, Palmer” value (pigweed, palmer [18]; [22]) was 90 and the “Plant response rating, Pigweed, Palmer” value (pigweed, palmer [18]; [23]) was 90. The “Plant response rating, Foxtail, Green” value (green foxtail) was 100, the “Foxtail, Green plant response rating” value (green foxtail) was 100 and the “Plant response rating, Barnyardgrass” value (barnyardgrass [19]; [22]) was 80. For the same compound, the “Plant response rating, Barnyardgrass” value (barnyardgrass [19]; [23]) was 90, the “Plant response rating, Soybean” value (soybean [20]; [22]) was 100 and the “Plant response rating, Soybean” value (soybean [20]; [23]) was 100. For the same compound, the “Plant response rating, Blackgrass” value (blackgrass [21]; [22]) was 80 and the “Plant response rating, Blackgrass” value (blackgrass [21]; [23]) was 90.
Cc1ccc(-n2cnc(C3(C)CC3)n2)cc1C(=O)N1C[C@H](C)Oc2c(Cl)cccc21 [Compound 252] was tested, and the “Plant response rating, Corn” value (corn [1]; [22]) was 60, the “Plant response rating, Corn” value (corn [1]; [23]) was 80 and the “Plant response rating, Ryegrass, Italian” value (ryegrass, Italian [2]; [22]) was 80. The “Plant response rating, Ryegrass, Italian” value (ryegrass, Italian [2]; [23]) was 80, the “Plant response rating, Kochia” value (kochia [3]) was 100 and the “Kochia plant response rating” value (kochia [3]) was 100. For the same compound, the “Plant response rating, Ryegrass, Italian” value (ryegrass, Italian [4]) was 80, the “Ryegrass, Italian plant response rating” value (ryegrass, Italian [4]) was 60 and the “Plant response rating, Galium” value (galium; [22]) was 100. For the same compound, the “Plant response rating, Galium” value (galium; [23]) was 100, the “Plant response rating, Pigweed, Palmer” value (pigweed, palmer [5]) was 100 and the “Pigweed, Palmer plant response rating” value (pigweed, palmer [5]) was 100. The “Plant response rating, Rice (Flood)” value (rice) was 0, the “Plant response rating, Wheat” value (wheat [6]) was 10 and the “Wheat plant response rating” value (wheat [6]) was 0. The “Plant response rating, Wheat” value (wheat [7]; [22]) was 20, the “Plant response rating, Wheat” value (wheat [7]; [23]) was 30 and the “Plant response rating, Oat, Wild” value (oat, wild [8]; [22]) was 10. The “Plant response rating, Oat, Wild” value (oat, wild [8]; [23]) was 10, the “Plant response rating, Sedge, Umbrella (Flood)” value (sedge, umbrella) was 15 and the “Plant response rating, Soybean” value (soybean [9]) was 80. For the same compound, the “Soybean plant response rating” value (soybean [9]) was 20, the “Plant response rating, Horseweed” value (horseweed; [22]) was 20 and the “Plant response rating, Horseweed” value (horseweed; [23]) was 50. For the same compound, the “Plant response rating, Ducksalad (Flood)” value (ducksalad) was 15, the “Plant response rating, Corn” value (corn [10]) was 0 and the “Corn plant response rating” value (corn [10]) was 0. For the same compound, the “Plant response rating, Blackgrass” value (blackgrass [11]) was 20, the “Blackgrass plant response rating” value (blackgrass [11]) was 0 and the “Plant response rating, Ragweed” value (ragweed [12]) was 30. For the same compound, the “Ragweed plant response rating” value (ragweed [12]) was 0, the “Plant response rating, Ragweed” value (ragweed [13]; [22]) was 70 and the “Plant response rating, Ragweed” value (ragweed [13]; [23]) was 80. The “Plant response rating, Barnyardgrass (Flood)” value (barnyardgrass [14]) was 35, the “Plant response rating, Oat, Wild” value (oat, wild [15]) was 70 and the “Oat, Wild plant response rating” value (oat, wild [15]) was 20. For the same compound, the “Plant response rating, Kochia” value (kochia [16]; [22]) was 90, the “Plant response rating, Kochia” value (kochia [16]; [23]) was 100 and the “Plant response rating, Barnyardgrass” value (barnyardgrass [17]) was 90. For the same compound, the “Barnyardgrass plant response rating” value (barnyardgrass [17]) was 80, the “Plant response rating, Pigweed, Palmer” value (pigweed, palmer [18]; [22]) was 90 and the “Plant response rating, Pigweed, Palmer” value (pigweed, palmer [18]; [23]) was 100. For the same compound, the “Plant response rating, Foxtail, Green” value (green foxtail) was 100, the “Foxtail, Green plant response rating” value (green foxtail) was 100 and the “Plant response rating, Barnyardgrass” value (barnyardgrass [19]; [22]) was 60. For the same compound, the “Plant response rating, Barnyardgrass” value (barnyardgrass [19]; [23]) was 80, the “Plant response rating, Soybean” value (soybean [20]; [22]) was 100 and the “Plant response rating, Soybean” value (soybean [20]; [23]) was 100. For the same compound, the “Plant response rating, Blackgrass” value (blackgrass [21]; [22]) was 80 and the “Plant response rating, Blackgrass” value (blackgrass [21]; [23]) was 80.
